Source: paper PMC10323144, “Garbage in, garbage out: how reliable training data improved a virtual screening approach against SARS-CoV-2 MPro” (Frontiers in Pharmacology, 2023)
Square brackets hold non-standard residues; d marks the D form. Peptide text beside a SMILES is read from it. * marks the point of attachment. ξ: configuration not given here. Boc = CC(C)(C)OC(=O)*; ξV = CC(C)C(N)C(=O)O; GABA = NCCCC(=O)O; ξA = CC(N)C(=O)O

Target: SARS-CoV-2 MPro (Severe acute respiratory syndrome coronavirus 2, UniProt P0DTD1)
Assay: MPro activity assay (de-quenching of Edans fluorescence on cleavage of a Dabcyl/Edans peptide)
Assay type: biochemical
Conditions: for IC50: 60 min pre-incubation, 5 μM substrate; for activity at 25 µM: read-out: MPro activity (%); for activity against MPro (in words): 25 μM where stated

Structure (SMILES)	activity at 25 µM [%]	also measured
COc1ccc(C(=O)C2=C(O)C(=O)N(c3nc4ccc(Cl)cc4s3)C2c2ccc(F)cc2)cc1OC (stereo not shown) [1a]	34.8 ± 3.4	IC50: < 25 µM
[O-][n+]1onc2cc(Cl)cc(Cl)c21 [1d]	89.3 ± 1.9	
COC(=O)[C@@H](Cc1ccccc1)NC(=O)C(C)NC(=O)[C@@H](NC(=O)C(NC(=O)CCCNC(=O)OC(C)(C)C)C(C)C)C(C)C (stereo partly shown) [2a] ({Boc-GABA}-[ξV]V[ξA][dF]-OMe)		IC50: 32.1 ± 1.4 µM
CC(C)(C)OC(=O)NC1CCCN(CC(=O)NC(Cc2ccccc2)C(=O)Nc2nc3cc(Sc4ccccc4)ccc3[nH]2)C1=O (stereo not shown) [3a]	64.9 ± 11.6	
Cc1c(C(=O)NCc2ccccc2)[n+]([O-])c2ccccc2[n+]1[O-] [4a]	59.4 ± 3.6	
Oc1cc(O)c2c(c1)O[C@H](c1ccc(O)c(O)c1)[C@H](O)C2 [4b, epicatechin]		% activity MPro at 10 μM or 25 μM (10 μM or 25 μM compound): 88.7 ± 0.6%; activity against MPro (in words): negligible activity
O=S(=O)(O)c1ccc(/C=N/N=c2\scc(-c3cs/c(=N\N=C\c4ccc(S(=O)(=O)O)o4)n3-c3ccccc3)n2-c2ccccc2)o1 [5a]	65.6 ± 10.9	
O=C(O[C@@H]1Cc2c(O)cc(O)cc2O[C@@H]1c1ccc(O)c(O)c1)c1cc(O)c(O)c(O)c1 [5b, epicatechin gallate]	0	activity against MPro (in words): full inhibition
CC(=O)OC[C@H]1O[C@@H](Sc2ccccc2)[C@H](OC(C)=O)[C@@H](OC(C)=O)C1OC(C)=O (stereo partly shown) [6a]	60.9 ± 1.5	
COc1ccc2no[n+]([O-])c2c1 [6d]	85.8 ± 3.5	
O=C(O)c1ccc2no[n+]([O-])c2c1 [7d]	66 ± 4	
O=C(OC[C@H]1O[C@@H](OC(=O)c2ccccc2)[C@H](OC(=O)c2ccccc2)[C@@H](OC(=O)c2ccccc2)[C@@H]1OC(=O)c1ccccc1)c1ccccc1 [8a]	67 ± 2.5	
[O-][n+]1onc2ccc(/C=C/[S+]([O-])c3ccccc3)cc21 (stereo not shown) [8d]	91.6 ± 0.1	
[O-][n+]1onc2ccc(/C=C\Sc3ccc(F)cc3)cc21 [9d]	81.4 ± 21.5	
[O-][n+]1onc2ccc(/C=C/[S+]([O-])c3ccc(F)cc3)cc21 (stereo not shown) [10d]	55.6 ± 3.4	
Cc1ccc([S+]([O-])/C=C/c2ccc3no[n+]([O-])c3c2)cc1 (stereo not shown) [11d]	70.6 ± 0.8	
[O-][n+]1onc2ccc(/C=C\[S+]([O-])c3ccccc3)cc21 (stereo not shown) [12d]	56.2 ± 0.5	
O=S(=O)(/C=C\c1ccc2no[n+]([O-])c2c1)c1ccc(Cl)cc1 [13d]	58 ± 0.3	
Cc1ccc([S+]([O-])/C=C\c2ccc3no[n+]([O-])c3c2)cc1 (stereo not shown) [14d]	73.8 ± 4.4	
[O-][n+]1onc2ccc(/C=C\c3ccc4c(c3)OCO4)cc21 [15d]	67.4 ± 1.8	
[O-][S+](/C=C/c1ccc2nonc2c1)c1ccccc1 (stereo not shown) [16d]	71.9 ± 11	
O=[N+]([O-])c1ccc(CS(=O)(=O)/C=C/c2ccc3nonc3c2)cc1 [17d]	116 ± 15	
O=S(=O)(/C=C\c1ccc2no[n+]([O-])c2c1)c1ccccc1 [18d]	71.2 ± 0.9	
Cc1ccc(S(=O)(=O)/C=C\c2ccc3no[n+]([O-])c3c2)cc1 [19d]	98.6 ± 2.4	
Cc1ccc(S(=O)(=O)/C=C/c2ccc3no[n+]([O-])c3c2)cc1 [20d]	62.6 ± 4.9	
O=C(c1ccc2no[n+]([O-])c2c1)N1CCOCC1 [21d]	78.7 ± 3.2	
O=C(/C=C/c1ccc2ccccc2c1)c1ccccc1O [25d]		IC50: 0.5 µM
O=C(/C=C/c1ccc2ccccc2c1)c1ccc2ccccc2c1O [26d]		inhibition at 25 µM (read-out: MPro inhibition): 45%
